Patent publication US20170015696A1, “SOLID STATE FORMS OF SOFOSBUVIR” (RATIOPHARM GMBH, priority 2014, published 2017)

Experiment: Storage stability of the solid state form at ambient conditions
Assay type: physicochemical
Conditions: stored at ambient conditions (e.g., 1 atmosphere at RT)
Excerpt: Form A has certain advantageous properties as discussed above. Particularly, form A is stable for a period of 16 months when stored at ambient conditions (e.g., 1 atmosphere at RT).

CC(C)OC(=O)[C@H](C)N[P@](=O)(OC[C@H]1O[C@@H](n2ccc(=O)[nH]c2=O)[C@](C)(F)[C@@H]1O)Oc1ccccc1 [form A, Sofosbuvir]
period for which the form is stable when stored: 16 months
